# Assay results from article PMC10866072, “Design, synthesis, molecular modelling and biological evaluation of novel 6-amino-5-cyano-2-thiopyrimidine derivatives as potent anticancer agents against leukemia and apoptotic inducers” (Journal of Enzyme Inhibition and Medicinal Chemistry, 2024).
# Experiments:
# MDA-MB-435 = type: cell-based; details: Homo sapiens, one dose 10^-5 M, 48 h, read-out: % growth
# SF-539 = type: cell-based; details: Homo sapiens, one dose 10^-5 M, 48 h
# MDA-MB-231/ATCC = type: cell-based; details: one dose 10^-5 M, 48 h; for % growth at 10 µM: Homo sapiens
# A498 = type: cell-based; details: Homo sapiens, one dose 10^-5 M, 48 h
# HL-60(TB) = type: cell-based; details: Homo sapiens, one dose 10^-5 M, 48 h
# SK-MEL-2 = type: cell-based; details: Homo sapiens, one dose 10^-5 M, 48 h
# RXF 393 = type: cell-based; details: Homo sapiens, RXF 393, 48 h, one dose 10^-5 M, 48 h, read-out: % growth
# SF-268 = type: cell-based; details: Homo sapiens, one dose 10^-5 M, 48 h, read-out: % growth
# OVCAR-4 = type: cell-based; details: Homo sapiens, one dose 10^-5 M, 48 h
# IGROV1 = type: cell-based; details: Homo sapiens, IGROV-1, one dose 10^-5 M, 48 h, read-out: % growth
# SK-MEL-28 = type: cell-based; details: Homo sapiens, one dose 10^-5 M, 48 h
# SF-295 = type: cell-based; details: Homo sapiens, one dose 10^-5 M, 48 h
# K-562 = type: cell-based; details: Homo sapiens, K562, one dose 10^-5 M, 48 h
# SR = type: cell-based; details: Homo sapiens, one dose 10^-5 M, 48 h
# HCC-2998 = type: cell-based; details: Homo sapiens, one dose 10^-5 M, 48 h
# LOX IMVI = type: cell-based; details: Homo sapiens, one dose 10^-5 M, 48 h, read-out: % growth
# CCRF-CEM = type: cell-based; details: Homo sapiens, one dose 10^-5 M, 48 h
# HOP-62 = type: cell-based; details: Homo sapiens, one dose 10^-5 M, 48 h
# SK-MEL-5 = type: cell-based; details: Homo sapiens, one dose 10^-5 M, 48 h, read-out: % growth
# HCT-15 = type: cell-based; details: Homo sapiens, one dose 10^-5 M, 48 h, read-out: % growth
# HCT-116 = type: cell-based; details: Homo sapiens, one dose 10^-5 M, 48 h, read-out: % growth
# NCI-H460 = type: cell-based; details: Homo sapiens, one dose 10^-5 M, 48 h, read-out: % growth
# MOLT-4 = type: cell-based; details: Homo sapiens, one dose 10^-5 M, 48 h, read-out: % growth
# UACC-62 = type: cell-based; details: Homo sapiens, one dose 10^-5 M, 48 h
# CAKI-1 = type: cell-based; details: Homo sapiens, CAKI-1, 48 h, one dose 10^-5 M, 48 h
# KM12 = type: cell-based; details: Homo sapiens, one dose 10^-5 M, 48 h
# SNB-19 = type: cell-based; details: Homo sapiens, one dose 10^-5 M, 48 h, read-out: % growth
# DU-145 = type: cell-based; details: Homo sapiens, one dose 10^-5 M, 48 h
# SNB-75 = type: cell-based; details: Homo sapiens, one dose 10^-5 M, 48 h
# [1] = tested on: full NCI 60 cell lines panel; details: Homo sapiens, 60 cell, 48 h, read-out: Mean % growth
# OVCAR-5 = type: cell-based; details: Homo sapiens, one dose 10^-5 M, 48 h
# ACHN = type: cell-based; details: Homo sapiens, one dose 10^-5 M, 48 h
# HS 578T = type: cell-based; details: Homo sapiens; one dose 10^-5 M, 48 h; HS 578T; read-out: % growth
# RPMI-8226 = type: cell-based; details: Homo sapiens, one dose 10^-5 M, 48 h
# UACC-257 = type: cell-based; details: Homo sapiens, one dose 10^-5 M, 48 h
# 786-0 = type: cell-based; details: Homo sapiens, one dose 10^-5 M, 48 h
# MALME-3M = type: cell-based; details: Homo sapiens, one dose 10^-5 M, 48 h
# U251 = type: cell-based; details: Homo sapiens, U-251, one dose 10^-5 M, 48 h
# TK-10 = type: cell-based; details: Homo sapiens, one dose 10^-5 M, 48 h
# SK-OV-3 = type: cell-based; details: Homo sapiens, one dose 10^-5 M, 48 h
# OVCAR-8 = type: cell-based; details: Homo sapiens, one dose 10^-5 M, 48 h
# SW-620 = type: cell-based; details: Homo sapiens, one dose 10^-5 M, 48 h
# UO-31 = type: cell-based; details: Homo sapiens, UO-31, 48 h, one dose 10^-5 M, 48 h
# A549/ATCC = type: cell-based; details: Homo sapiens, one dose 10^-5 M, 48 h
# HT29 = type: cell-based; details: Homo sapiens, HT-29, one dose 10^-5 M, 48 h
# PC-3 = type: cell-based; details: Homo sapiens, one dose 10^-5 M, 48 h
# M14 = type: cell-based; details: Homo sapiens, one dose 10^-5 M, 48 h
# NCI-H522 = type: cell-based; details: Homo sapiens, one dose 10^-5 M, 48 h
# T-47D = type: cell-based; details: Homo sapiens, T47D, one dose 10^-5 M, 48 h, read-out: % growth
# NCI-H23 = type: cell-based; details: Homo sapiens, one dose 10^-5 M, 48 h, read-out: % growth
# MCF7 = type: cell-based; details: Homo sapiens, one dose 10^-5 M, 48 h, read-out: % growth
# HOP-92 = type: cell-based; details: Homo sapiens, one dose 10^-5 M, 48 h
# SN12C = type: cell-based, human; details: Homo sapiens, one dose 10^-5 M, 48 h
# EKVX = type: cell-based; details: Homo sapiens, one dose 10^-5 M, 48 h
# NCI-H226 = type: cell-based; details: Homo sapiens, one dose 10^-5 M, 48 h
# MDA-MB-468 = type: cell-based; details: Homo sapiens, one dose 10^-5 M, 48 h
# OVCAR-3 = type: cell-based; details: Homo sapiens, one dose 10^-5 M, 48 h
smiles,measurement,setting,value
"N=C(NN=Cc1ccc(Br)cc1)c1c(N)nc(S)nc1-c1ccc(Cl)cc1 [Compound 4k, 4-amino-N'-[(4-bromophenyl)methylene]-6–(4-chlorophenyl)-2-mercapto pyrimidine-5-carboximidohydrazide]",activity at 10 µM,MDA-MB-435,87.8%
same,% growth at 10 µM,SF-539,71.2%
same,% growth at 10 µM,MDA-MB-231/ATCC,-1.21%
same,% growth,MDA-MB-231/ATCC,-1.21%
same,% growth at 10 µM,A498,88.4%
same,% growth at 10 µM,HL-60(TB),119%
same,% growth at 10 µM,SK-MEL-2,96%
same,activity at 10 µM,RXF 393,82.5%
same,activity at 10 µM,SF-268,90.2%
same,% growth at 10 µM,OVCAR-4,76.7%
same,activity at 10 µM,IGROV1,68.2%
same,% cell growth at 10 µM,SK-MEL-28,105%
same,% cell growth at 10 µM,SF-295,91.2%
same,% growth at 10 µM,K-562,67.8%
same,percent cell growth at 10 µM,SR,62.4%
same,% growth at 10 µM,HCC-2998,111%
same,activity at 10 µM,LOX IMVI,92.3%
same,% cell growth at 10 µM,CCRF-CEM,43.4%
same,% growth at 10 µM,HOP-62,98%
same,activity at 10 µM,SK-MEL-5,93.3%
same,activity at 10 µM,HCT-15,73.4%
same,activity at 10 µM,HCT-116,69.6%
same,activity at 10 µM,NCI-H460,73.4%
same,activity at 10 µM,MOLT-4,54.6%
same,% growth at 10 µM,UACC-62,82.4%
same,% growth at 10 µM,CAKI-1,62.4%
same,% growth at 10 µM,KM12,76.2%
same,activity at 10 µM,SNB-19,80.4%
same,% growth at 10 µM,DU-145,83.9%
same,% growth at 10 µM,SNB-75,35.5%
same,activity at 10 µM,[1],76.8%
same,percent cell growth at 10 µM,OVCAR-5,97%
same,% growth at 10 µM,ACHN,77.3%
same,activity at 10 µM,HS 578T,42.6%
same,% growth at 10 µM,RPMI-8226,56.8%
same,percent cell growth at 10 µM,UACC-257,81.4%
same,% growth at 10 µM,786-0,89.9%
same,% growth at 10 µM,MALME-3M,119%
same,% growth at 10 µM,U251,77.1%
same,% cell growth at 10 µM,TK-10,116%
same,% growth at 10 µM,SK-OV-3,78.7%
same,% growth of cells at 10 µM,OVCAR-8,63.7%
same,% growth at 10 µM,SW-620,95.6%
same,% cell growth at 10 µM,UO-31,47.8%
same,% growth at 10 µM,A549/ATCC,55.3%
same,% growth at 10 µM,HT29,102%
same,percent cell growth at 10 µM,PC-3,70.5%
same,% growth at 10 µM,M14,76.5%
same,% growth at 10 µM,NCI-H522,73.5%
same,activity at 10 µM,T-47D,54.8%
same,activity at 10 µM,NCI-H23,71.8%
same,activity at 10 µM,MCF7,57.5%
same,% growth at 10 µM,HOP-92,19%
same,% growth at 10 µM,SN12C,87.7%
same,% cell growth at 10 µM,EKVX,66.3%
same,% growth at 10 µM,NCI-H226,98%
same,percent cell growth at 10 µM,MDA-MB-468,84.6%
same,% growth at 10 µM,OVCAR-3,101%
"N=C(NN=Cc1ccc(Cl)cc1Cl)c1c(N)nc(S)nc1-c1ccc(Cl)cc1 [Compound 4l, 4-amino-6–(4-chlorophenyl)-N'-[(2,4-dichlorophenyl)methylene]-2-mercapto pyrimidine-5-carboximidohydrazide]",activity at 10 µM,MDA-MB-435,89%
same,% growth at 10 µM,SF-539,70.3%
same,% growth at 10 µM,MDA-MB-231/ATCC,52.7%
same,% growth at 10 µM,A498,6.77%
same,% growth at 10 µM,HL-60(TB),101%
same,% growth at 10 µM,SK-MEL-2,83.3%
same,activity at 10 µM,RXF 393,31.2%
same,activity at 10 µM,SF-268,73.6%
same,% growth at 10 µM,OVCAR-4,79.2%
same,activity at 10 µM,IGROV1,44.9%
same,% cell growth at 10 µM,SK-MEL-28,75.8%
same,% cell growth at 10 µM,SF-295,85%
same,% growth at 10 µM,K-562,77.1%
same,percent cell growth at 10 µM,SR,65.6%
same,% growth at 10 µM,HCC-2998,95%
same,activity at 10 µM,LOX IMVI,69.4%
same,% cell growth at 10 µM,CCRF-CEM,64.6%
same,% growth at 10 µM,HOP-62,53%
same,activity at 10 µM,SK-MEL-5,81%
same,activity at 10 µM,HCT-15,77.4%
same,activity at 10 µM,HCT-116,84.2%
same,activity at 10 µM,NCI-H460,66.3%
same,activity at 10 µM,MOLT-4,66.4%
same,% growth at 10 µM,UACC-62,43.1%
same,% growth at 10 µM,CAKI-1,37%
same,% growth at 10 µM,KM12,79.8%
same,activity at 10 µM,SNB-19,84%
same,% growth at 10 µM,DU-145,79.3%
same,% growth at 10 µM,SNB-75,26.1%
same,activity at 10 µM,[1],68.3%
same,percent cell growth at 10 µM,OVCAR-5,73.2%
same,% growth at 10 µM,ACHN,53.2%
same,activity at 10 µM,HS 578T,36.4%
same,% growth at 10 µM,RPMI-8226,46.5%
same,percent cell growth at 10 µM,UACC-257,96.5%
same,% growth at 10 µM,786-0,88.6%
same,% growth at 10 µM,MALME-3M,43.4%
same,% growth at 10 µM,U251,93.9%
same,% cell growth at 10 µM,TK-10,98.8%
same,% growth at 10 µM,SK-OV-3,82.1%
same,% growth of cells at 10 µM,OVCAR-8,90%
same,% growth at 10 µM,SW-620,95.8%
same,% cell growth at 10 µM,UO-31,43.2%
same,% growth at 10 µM,A549/ATCC,90.7%
same,% growth at 10 µM,HT29,87%
same,percent cell growth at 10 µM,PC-3,48%
same,% growth at 10 µM,M14,76.2%
same,% growth at 10 µM,NCI-H522,62.3%
same,activity at 10 µM,T-47D,28.1%
same,activity at 10 µM,NCI-H23,78.3%
same,activity at 10 µM,MCF7,53.1%
same,% growth at 10 µM,HOP-92,54.9%
same,% growth at 10 µM,SN12C,65.5%
same,% cell growth at 10 µM,EKVX,59%
same,% growth at 10 µM,NCI-H226,62.4%
same,percent cell growth at 10 µM,MDA-MB-468,88.4%
same,% growth at 10 µM,OVCAR-3,80.2%
